These results are taken from paper PMC9833666, “Designing and identifying β-hairpin peptide macrocycles with antibiotic potential” (Science Advances, 2023).

In series [1] the test system is Acinetobacter baumannii AB5075. The conditions noted are these: for AB5075 MIC FBS: 100% fetal bovine serum; for AB5075 MIC MH: Mueller-Hinton.
The subject of series [2] is Single-donor human red blood cells. The experiment in a line: Hemolysis assay. The class given is cell-based. As to conditions: hemolysis at 128 µg/ml, fold change relative to SySA-5. In a few lines:
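Peptides at 300 μg/ml (SySA library) or 128 μg/ml (SySA-5 optimization library) were incubated in triplicate with washed single-donor RBCs (1 × 10^9 cells/ml) for 3 h at 37 °C. Supernatant A540 was background-normalized to PBS and expressed relative to 1% Triton X-100 (100% hemolysis).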

Read-outs that look alike come from different tables or passages of the source. Bridge positions count the residues as written; N and C are the ends. Peptide text beside a SMILES is read from it.

In the case of `CC(C)C[C@@H]1NC(=O)[C@H](CO)NC(=O)[C@H](C(C)C)NC(=O)[C@@H]2CSSC[C@H](NC(=O)[C@H](CC(C)C)NC(=O)[C@H](CCCNC(=N)N)NC(=O)[C@H](C(C)C)NC(=O)[C@H](CCCNC(=N)N)NC(=O)[C@H](CC(C)C)NC(=O)[C@@H](N)CSSC[C@@H](C(=O)O)NC(=O)[C@H](C(C)C)NC(=O)[C@H](CCCNC(=N)N)NC1=O)C(=O)N[C@@H](CCCNC(=N)N)C(=O)N[C@@H](CCCNC(=N)N)C(=O)N[C@@H](CCCNC(=N)N)C(=O)N2` [SySA-5.21] (H-CLRVRLCRRRCVSLRVC-OH; disulfide 1-17, 7-11 (inferred); N-terminus and C-terminus assumed), the “AB5075 MIC FBS” value in series [1] (replicate 1) was 128 µg/mL; in series [1] (replicate 2), greater than 128 µg/mL; in series [1] (replicate 3), greater than 128 µg/mL. The entries for the “AB5075 MIC MH” value in series [1] (replicate 1), in series [1] (replicate 2) and in series [1] (replicate 3) were 16 µg/mL, 16 µg/mL and 32 µg/mL, respectively. For the same molecule, the “Fold Change Hemolysis” value in series [2] was determined as 2.4.
`CC(C)C[C@@H]1NC(=O)[C@H](CCCNC(=N)N)NC(=O)[C@@H]2CSSC[C@H](NC(=O)[C@H](CCCNC(=N)N)NC(=O)[C@H](C(C)C)NC(=O)[C@H](CCCNC(=N)N)NC(=O)[C@@H](N)CSSC[C@@H](C(=O)O)NC(=O)[C@H](CCCNC(=N)N)NC1=O)C(=O)N[C@@H](CCCNC(=N)N)C(=O)N[C@@H](CCCNC(=N)N)C(=O)N[C@@H](CCCNC(=N)N)C(=O)N[C@@H](CCCNC(=N)N)C(=O)N[C@@H](CCCNC(=N)N)C(=O)N[C@@H](CCCCN)C(=O)N2` [SySA-5.27] (H-CRVRCRRRRRKCRLRC-OH; disulfide 1-16, 5-12 (inferred); N-terminus and C-terminus assumed): the “AB5075 MIC FBS” value in series [1] (replicate 1), in series [1] (replicate 2) and in series [1] (replicate 3) was greater than 128 µg/mL in each case. In addition, the “AB5075 MIC MH” value in series [1] (replicate 1), in series [1] (replicate 2) and in series [1] (replicate 3) was 128 µg/mL throughout. For the same molecule, the “Fold Change Hemolysis” value in series [2] was 0.6.
Regarding `CC(C)C[C@@H]1NC(=O)[C@H](CO)NC(=O)[C@H](C(C)C)NC(=O)[C@H](CCCCN)NC(=O)[C@H](C(C)C)NC(=O)[C@@H]2CSSC[C@H](NC(=O)[C@H](CC(C)C)NC(=O)[C@H](CCCNC(=N)N)NC(=O)[C@H](C(C)C)NC(=O)[C@H](CCCNC(=N)N)NC(=O)[C@@H](N)CSSC[C@@H](C(=O)O)NC(=O)[C@H](CCCNC(=N)N)NC1=O)C(=O)N[C@@H](CC(N)=O)C(=O)N[C@@H](CCCNC(=N)N)C(=O)N[C@@H](CCCNC(=N)N)C(=O)N[C@@H](CCCNC(=N)N)C(=O)N2` [SySA-5.8] (H-CRVRLCNRRRCVKVSLRC-OH; disulfide 1-18, 6-11 (inferred); N-terminus and C-terminus assumed), the “AB5075 MIC FBS” value in series [1] (replicate 1), in series [1] (replicate 2) and in series [1] (replicate 3) was greater than 128 µg/mL each time. Also, the “AB5075 MIC MH” value in series [1] (replicate 1), in series [1] (replicate 2) and in series [1] (replicate 3) was 8 µg/mL each time. Also, in series [2], the “Fold Change Hemolysis” value was 0.8.
Take `CC(C)C[C@@H]1NC(=O)[C@H](CCCNC(=N)N)NC(=O)[C@H](C(C)C)NC(=O)[C@H](CCCNC(=N)N)NC(=O)[C@H](CC(C)C)NC(=O)[C@@H](N)CSSC[C@@H](C(=O)O)NC(=O)[C@H](C(C)C)NC(=O)[C@H](CCCNC(=N)N)NC(=O)[C@H](CC(C)C)NC(=O)[C@H](CCCNC(=N)N)NC(=O)[C@H](C(C)C)NC(=O)[C@H](CCCCN)NC(=O)[C@H](C(C)C)NC(=O)[C@@H]2CSSC[C@H](NC1=O)C(=O)N[C@@H](CCCNC(=N)N)C(=O)N[C@@H](CCCNC(=N)N)C(=O)N[C@@H](CCCNC(=N)N)C(=O)N[C@@H](CCCNC(=N)N)C(=O)N2` [SySA-5.4] (H-CLRVRLCRRRRCVKVRLRVC-OH; disulfide 1-20, 7-12 (inferred); N-terminus and C-terminus assumed): the “AB5075 MIC FBS” value in series [1] (replicate 1), in series [1] (replicate 2) and in series [1] (replicate 3) was 64 µg/mL each time. Further, the “AB5075 MIC MH” value in series [1] (replicate 1) was 4 µg/mL; in series [1] (replicate 2), 8 µg/mL; in series [1] (replicate 3), 8 µg/mL. Besides, the “Fold Change Hemolysis” value in series [2] was found to be 2.9.
`CC(C)C[C@@H]1NC(=O)[C@H](CO)NC(=O)[C@H](C(C)C)NC(=O)[C@H](CCCCN)NC(=O)[C@@H]2CSSC[C@H](NC(=O)[C@H](CC(N)=O)NC(=O)[C@H](CC(C)C)NC(=O)[C@H](CCCNC(=N)N)NC(=O)[C@H](C(C)C)NC(=O)[C@H](CCCNC(=N)N)NC(=O)[C@@H](N)CSSC[C@@H](C(=O)O)NC(=O)[C@H](CCC(N)=O)NC1=O)C(=O)N[C@@H](CCCNC(=N)N)C(=O)N[C@@H](CCCNC(=N)N)C(=O)NCC(=O)N[C@@H](CCCNC(=N)N)C(=O)N2` [SySA-5.15] (H-CRVRLNCRRGRCKVSLQC-OH; disulfide 1-18, 7-12 (inferred); N-terminus and C-terminus assumed): the “AB5075 MIC FBS” value in series [1] (replicate 1), in series [1] (replicate 2) and in series [1] (replicate 3) was greater than 128 µg/mL in each case. The “AB5075 MIC MH” value in series [1] (replicate 1), in series [1] (replicate 2) and in series [1] (replicate 3) was 16 µg/mL in each case. Moreover, in series [2], the “Fold Change Hemolysis” value is 1.3.
With `CC(C)C[C@@H]1NC(=O)[C@H](CCCNC(=N)N)NC(=O)[C@H](C(C)C)NC(=O)[C@@H]2CSSC[C@H](NC(=O)[C@H](CC(C)C)NC(=O)[C@H](CCCNC(=N)N)NC(=O)[C@H](C(C)C)NC(=O)[C@H](CCCNC(=N)N)NC(=O)[C@H](CC(C)C)NC(=O)[C@@H](N)CSSC[C@@H](C(=O)O)NC(=O)[C@H](C(C)C)NC(=O)[C@H](CCCNC(=N)N)NC1=O)C(=O)N[C@@H](CCCNC(=N)N)C(=O)N[C@@H](CCCNC(=N)N)C(=O)N[C@@H](CCCNC(=N)N)C(=O)N[C@@H](CCCNC(=N)N)C(=O)N2` [SySA-5.14] (H-CLRVRLCRRRRCVRLRVC-OH; disulfide 1-18, 7-12 (inferred); N-terminus and C-terminus assumed), the “AB5075 MIC FBS” value in series [1] (replicate 1), in series [1] (replicate 2) and in series [1] (replicate 3) was 64 µg/mL in each case. The “AB5075 MIC MH” value was 8 µg/mL in series [1] (replicate 1), 4 µg/mL in series [1] (replicate 2) and 4 µg/mL in series [1] (replicate 3). Further, the “Fold Change Hemolysis” value in series [2] is given as 5.6.
Regarding `CC(C)C[C@@H]1NC(=O)[C@H](CCCNC(=N)N)NC(=O)[C@H](C(C)C)NC(=O)[C@H](CCCCN)NC(=O)[C@H](CCCNC(=N)N)NC(=O)[C@H](CCCNC(=N)N)NC(=O)[C@H](CCCNC(=N)N)NC(=O)[C@H](CCCNC(=N)N)NC(=O)[C@H](CCCNC(=N)N)NC(=O)[C@H](CC(C)C)NC(=O)[C@H](CCCNC(=N)N)NC(=O)[C@H](C(C)C)NC(=O)[C@H](CCCNC(=N)N)NC(=O)[C@@H](N)CSSC[C@@H](C(=O)O)NC(=O)[C@H](CCCNC(=N)N)NC1=O` [SySA-5.25] (H-CRVRLRRRRRKVRLRC-OH; disulfide 1-16), in series [1] (median of triplicate), the “AB5075 MIC FBS” value was greater than 128 µg/mL and the “AB5075 MIC MH” value is 32 µg/mL. Further, the “Fold Change Hemolysis” value in series [2] stood at 1.5.
On to `CC(C)C[C@@H]1NC(=O)[C@H](CCCNC(=N)N)NC(=O)[C@H](C(C)C)NC(=O)[C@@H]2CSSC[C@H](NC(=O)[C@H](CC(C)C)NC(=O)[C@H](CCCNC(=N)N)NC(=O)[C@H](C(C)C)NC(=O)[C@H](CCCNC(=N)N)NC(=O)[C@H](CC(C)C)NC(=O)[C@@H](N)CSSC[C@@H](C(=O)O)NC(=O)[C@H](C(C)C)NC(=O)[C@H](CCCNC(=N)N)NC1=O)C(=O)N[C@@H](CCCNC(=N)N)C(=O)N[C@@H](CCCNC(=N)N)C(=O)N[C@@H](CCCNC(=N)N)C(=O)N2` [SySA-5.22] (H-CLRVRLCRRRCVRLRVC-OH; disulfide 1-17, 7-11 (inferred); N-terminus and C-terminus assumed), for which the “AB5075 MIC FBS” value in series [1] (replicate 1), in series [1] (replicate 2) and in series [1] (replicate 3) was 64 µg/mL each time. The figures for the “AB5075 MIC MH” value in series [1] (replicate 1), in series [1] (replicate 2) and in series [1] (replicate 3) were 32 µg/mL, 8 µg/mL and 32 µg/mL, respectively. Besides, the “Fold Change Hemolysis” value in series [2] came to 2.1.
For `CC(C)C[C@@H]1NC(=O)[C@H](CCCNC(=N)N)NC(=O)[C@H](C(C)C)NC(=O)[C@H](CCCCN)NC(=O)[C@H](CCCNC(=N)N)NC(=O)[C@H](CCCNC(=N)N)NC(=O)[C@H](CCCNC(=N)N)NC(=O)[C@H](CCCNC(=N)N)NC(=O)[C@H](CCCNC(=N)N)NC(=O)[C@H](CC(C)C)NC(=O)[C@H](CCCNC(=N)N)NC(=O)[C@H](C(C)C)NC(=O)[C@H](CCCNC(=N)N)NC(=O)[C@H](CC(C)C)NC(=O)[C@@H](N)CSSC[C@@H](C(=O)O)NC(=O)[C@H](C(C)C)NC(=O)[C@H](CCCNC(=N)N)NC1=O` [SySA-5.12] (H-CLRVRLRRRRRKVRLRVC-OH; disulfide 1-18), in series [1] (median of triplicate), the “AB5075 MIC FBS” value was greater than 128 µg/mL and the “AB5075 MIC MH” value worked out at 4 µg/mL. Also, in series [2], the “Fold Change Hemolysis” value is listed as 3.7.
Consider `CC(C)C[C@@H]1NC(=O)[C@H](CCCNC(=N)N)NC(=O)[C@H](C(C)C)NC(=O)[C@@H]2CSSC[C@H](NC(=O)[C@H](CC(C)C)NC(=O)[C@H](CCCNC(=N)N)NC(=O)[C@H](C(C)C)NC(=O)[C@H](CCCNC(=N)N)NC(=O)[C@@H](N)CSSC[C@@H](C(=O)O)NC(=O)[C@H](CCCNC(=N)N)NC1=O)C(=O)N[C@@H](CCCNC(=N)N)C(=O)N[C@@H](CCCNC(=N)N)C(=O)N[C@@H](CCCNC(=N)N)C(=O)N[C@@H](CCCNC(=N)N)C(=O)N2` [SySA-5.26] (H-CRVRLCRRRRCVRLRC-OH; disulfide 1-16, 6-11 (inferred); N-terminus and C-terminus assumed), for which the “AB5075 MIC FBS” value in series [1] (replicate 1), in series [1] (replicate 2) and in series [1] (replicate 3) was greater than 128 µg/mL throughout. Further, the “AB5075 MIC MH” value in series [1] (replicate 1), in series [1] (replicate 2) and in series [1] (replicate 3) was 8 µg/mL in each case. The “Fold Change Hemolysis” value in series [2] came out at 0.8.
